Assay results as given in US20170190705A1, “Compositions and Methods for Inhibiting BMP” (THE BRIGHAM AND WOMAN'S HOSPITAL, INC., priority 2014, published 2017).

Tested on: TGFβ1
Assay: Ligand induced transcriptional activity assay TGFβ1 (CAGA-Luc)
Details: Homo sapiens; cell-based signaling inhibition

Row | SMILES | IC50 [nM]
1 | COc1cc(-c2cc(-c3ccc(N4CCNCC4)cc3)cnc2Cl)cc(OC)c1OC [Compound 27, 1-(4-(6-chloro-5-(3,4,5-trimethoxyphenyl)pyridin-3-yl)phenyl)piperazine] | 90000
2 | COc1cc(-c2cc(-c3ccc(O)cc3)cnc2N)cc(OC)c1OC [Compound 11, 4-(6-Amino-5-(3,4,5-trimethoxyphenyl)pyridin-3-yl)phenol] | 580 ± 50
3 | COc1cc(-c2cnc(N)c(-c3cc(OC)c(OC)c(OC)c3)c2)ccc1O [Compound 12, 4-(6-amino-5-(3,4,5-trimethoxyphenyl)pyridin-3-yl)-2-methoxyphenol] | 2300

Target: T1, ALK2 (Homo sapiens, UniProt Q04771, Q207D)
T1 construct: His tag (TEV-cleavable) (N, cleaved yes); made in house; host or cells: Sf9 insect cells (baculovirus)
T1 sequence (Q04771 201-499 Q207D): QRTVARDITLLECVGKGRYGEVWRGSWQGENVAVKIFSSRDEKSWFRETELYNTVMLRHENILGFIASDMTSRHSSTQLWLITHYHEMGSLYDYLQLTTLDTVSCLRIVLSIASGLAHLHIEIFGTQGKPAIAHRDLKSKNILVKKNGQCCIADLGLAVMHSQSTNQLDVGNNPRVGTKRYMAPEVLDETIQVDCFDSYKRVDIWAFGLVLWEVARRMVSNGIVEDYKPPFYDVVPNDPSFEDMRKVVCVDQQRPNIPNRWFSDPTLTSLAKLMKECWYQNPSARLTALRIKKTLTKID
Assay: Thermal shift kinase assay ALK2
Type: binding
Details: ALK2 minus ALK5
Description: Thermal melting experiments were performed using a Real Time PCR machine Mx3005p (Stratagene) with a protein concentration of 1-2 μM and 10 μM inhibitor as described by Niesen et al., Nat Protoc 2007, 2, 2212-21. Recombinant human kinases for DSF screening were prepared by SGC using the published methods of Sanvitale et al., PLoS One 2013, 8, e62721. The potency and selectivity of certain compounds of the invention based on thermal shift kinase and ligand induced transcriptional activity assays are shown in Table 2.

Row | SMILES | ΔTmDiff.
4 | COc1cc(-c2cc(-c3ccc(N4CCNCC4)cc3)cnc2Cl)cc(OC)c1OC [Compound 27, 1-(4-(6-chloro-5-(3,4,5-trimethoxyphenyl)pyridin-3-yl)phenyl)piperazine] | 3.8
5 | COc1cc(OC)cc(-c2cc(-c3ccc(N4CCNCC4)cc3)cnc2N)c1 [Compound 17, 3-(3,5-dimethoxyphenyl)-5-(4-(piperazin-1-yl)phenyl)pyridin-2-amine] | 3.5
6 | COc1cc(-c2cc(-c3ccc(O)cc3)cnc2N)cc(OC)c1OC [Compound 11, 4-(6-Amino-5-(3,4,5-trimethoxyphenyl)pyridin-3-yl)phenol] | 1.5
7 | Nc1ncc(-c2ccc(N3CCNCC3)cc2)cc1-c1cccc2ncccc12 [Compound 31, 5-(4-(piperazin-1-yl)phenyl)-3-(quinolin-5-yl)pyridin-2-amine] | 4.2
8 | COc1cc(-c2cnc(N)c(-c3cc(OC)c(OC)c(OC)c3)c2)ccc1O [Compound 12, 4-(6-amino-5-(3,4,5-trimethoxyphenyl)pyridin-3-yl)-2-methoxyphenol] | 1.7
9 | Nc1ncc(-c2ccc(N3CCNCC3)cc2)cc1-c1ccc2c(c1)OCCO2 [Compound 19, 3-(2,3-dihydrobenzo[b][1,4]dioxin-6-yl)-5-(4-(piperazin-1-yl)phenyl)pyridin-2-amine] | 4.0
10 | COc1cc(-c2cnn3cc(-c4ccc(N5CCNCC5)cc4)cnc23)cc(OC)c1OC [Compound 32, 3-(3,4,5-trimethoxyphenyl)-6-[4-(1-piperazinyl)phenyl]pyrazolo[1,5-a]pyrimidine] | 2.6

Tested on: BMP6
Assay: Ligand induced transcriptional activity assay BMP6 (BRE-Luc)
Type: cell-based
Details: TGFβ1 vs BMP6

Row | SMILES | Fold Select.
11 | COc1cc(-c2cc(-c3ccc(N4CCNCC4)cc3)cnc2Cl)cc(OC)c1OC [Compound 27, 1-(4-(6-chloro-5-(3,4,5-trimethoxyphenyl)pyridin-3-yl)phenyl)piperazine] | 244
12 | COc1cc(-c2cc(-c3ccc(O)cc3)cnc2N)cc(OC)c1OC [Compound 11, 4-(6-Amino-5-(3,4,5-trimethoxyphenyl)pyridin-3-yl)phenol] | 28

Same assay, conditions: cell-based signaling inhibition; read-out: BMP6 IC50

Row | SMILES | IC50 [nM]
13 | COc1cc(-c2cc(-c3ccc(N4CCNCC4)cc3)cnc2Cl)cc(OC)c1OC [Compound 27, 1-(4-(6-chloro-5-(3,4,5-trimethoxyphenyl)pyridin-3-yl)phenyl)piperazine] | 170 ± 60
14 | COc1cc(OC)cc(-c2cc(-c3ccc(N4CCNCC4)cc3)cnc2N)c1 [Compound 17, 3-(3,5-dimethoxyphenyl)-5-(4-(piperazin-1-yl)phenyl)pyridin-2-amine] | 40 ± 10
15 | COc1cc(-c2cc(-c3ccc(O)cc3)cnc2N)cc(OC)c1OC [Compound 11, 4-(6-Amino-5-(3,4,5-trimethoxyphenyl)pyridin-3-yl)phenol] | 20 ± 1
16 | Nc1ncc(-c2ccc(N3CCNCC3)cc2)cc1-c1cccc2ncccc12 [Compound 31, 5-(4-(piperazin-1-yl)phenyl)-3-(quinolin-5-yl)pyridin-2-amine] | 170 ± 60
17 | COc1cc(-c2cnc(N)c(-c3cc(OC)c(OC)c(OC)c3)c2)ccc1O [Compound 12, 4-(6-amino-5-(3,4,5-trimethoxyphenyl)pyridin-3-yl)-2-methoxyphenol] | 90 ± 30
18 | Nc1ncc(-c2ccc(N3CCNCC3)cc2)cc1-c1ccc2c(c1)OCCO2 [Compound 19, 3-(2,3-dihydrobenzo[b][1,4]dioxin-6-yl)-5-(4-(piperazin-1-yl)phenyl)pyridin-2-amine] | 730 ± 100
19 | COc1cc(-c2cnn3cc(-c4ccc(N5CCNCC5)cc4)cnc23)cc(OC)c1OC [Compound 32, 3-(3,4,5-trimethoxyphenyl)-6-[4-(1-piperazinyl)phenyl]pyrazolo[1,5-a]pyrimidine] | 20 ± 2

Tested on: HePG2 hepatocarcinoma cells
Assay: not given
Type: cell-based
Details: human, 4 h, 1 μM
Description: The cells were incubated for 2 h (37° C. and 5% CO2) and allowed to settle and attach. Compounds of interest or DMSO were diluted in DMEM and added at final compound concentrations of 1 μM, 10 μM, and 100 μM. Cells were incubated for 4 hours and 24 hours after which the media was discarded. Cells were lysed by adding 30 μL of passive lysis buffer (Promega) and shaken at RT for 15 min. Cell viability was determined by quantifying the ATP present in each well by adding 10 μL of CellTiter-Glo (Promega) per well and measuring the light output Spectramax L luminometer (Molecular Devices) with an integration time of one second per well. Data was normalized to 100% viability for cells receiving only DMSO without any concurrent compound.

Row | SMILES | Cell viability [%]
20 | COc1cc(-c2cc(-c3ccc(N4CCNCC4)cc3)cnc2Cl)cc(OC)c1OC [Compound 27, 1-(4-(6-chloro-5-(3,4,5-trimethoxyphenyl)pyridin-3-yl)phenyl)piperazine] | 95
21 | COc1cc(OC)cc(-c2cc(-c3ccc(N4CCNCC4)cc3)cnc2N)c1 [Compound 17, 3-(3,5-dimethoxyphenyl)-5-(4-(piperazin-1-yl)phenyl)pyridin-2-amine] | 95
22 | COc1cc(-c2cc(-c3ccc(O)cc3)cnc2N)cc(OC)c1OC [Compound 11, 4-(6-Amino-5-(3,4,5-trimethoxyphenyl)pyridin-3-yl)phenol] | 95
23 | Nc1ncc(-c2ccc(N3CCNCC3)cc2)cc1-c1cccc2ncccc12 [Compound 31, 5-(4-(piperazin-1-yl)phenyl)-3-(quinolin-5-yl)pyridin-2-amine] | 96
24 | COc1cc(-c2cnc(N)c(-c3cc(OC)c(OC)c(OC)c3)c2)ccc1O [Compound 12, 4-(6-amino-5-(3,4,5-trimethoxyphenyl)pyridin-3-yl)-2-methoxyphenol] | 96
25 | Nc1ncc(-c2ccc(N3CCNCC3)cc2)cc1-c1ccc2c(c1)OCCO2 [Compound 19, 3-(2,3-dihydrobenzo[b][1,4]dioxin-6-yl)-5-(4-(piperazin-1-yl)phenyl)pyridin-2-amine] | 100
26 | COc1cc(-c2cnn3cc(-c4ccc(N5CCNCC5)cc4)cnc23)cc(OC)c1OC [Compound 32, 3-(3,4,5-trimethoxyphenyl)-6-[4-(1-piperazinyl)phenyl]pyrazolo[1,5-a]pyrimidine] | 92

Same assay, conditions: human, 4 h, 10 μM

Row | SMILES | Cell viability [%]
27 | COc1cc(-c2cc(-c3ccc(N4CCNCC4)cc3)cnc2Cl)cc(OC)c1OC [Compound 27, 1-(4-(6-chloro-5-(3,4,5-trimethoxyphenyl)pyridin-3-yl)phenyl)piperazine] | 103
28 | COc1cc(OC)cc(-c2cc(-c3ccc(N4CCNCC4)cc3)cnc2N)c1 [Compound 17, 3-(3,5-dimethoxyphenyl)-5-(4-(piperazin-1-yl)phenyl)pyridin-2-amine] | 99
29 | COc1cc(-c2cc(-c3ccc(O)cc3)cnc2N)cc(OC)c1OC [Compound 11, 4-(6-Amino-5-(3,4,5-trimethoxyphenyl)pyridin-3-yl)phenol] | 98
30 | Nc1ncc(-c2ccc(N3CCNCC3)cc2)cc1-c1cccc2ncccc12 [Compound 31, 5-(4-(piperazin-1-yl)phenyl)-3-(quinolin-5-yl)pyridin-2-amine] | 103
31 | COc1cc(-c2cnc(N)c(-c3cc(OC)c(OC)c(OC)c3)c2)ccc1O [Compound 12, 4-(6-amino-5-(3,4,5-trimethoxyphenyl)pyridin-3-yl)-2-methoxyphenol] | 103
32 | Nc1ncc(-c2ccc(N3CCNCC3)cc2)cc1-c1ccc2c(c1)OCCO2 [Compound 19, 3-(2,3-dihydrobenzo[b][1,4]dioxin-6-yl)-5-(4-(piperazin-1-yl)phenyl)pyridin-2-amine] | 102
33 | COc1cc(-c2cnn3cc(-c4ccc(N5CCNCC5)cc4)cnc23)cc(OC)c1OC [Compound 32, 3-(3,4,5-trimethoxyphenyl)-6-[4-(1-piperazinyl)phenyl]pyrazolo[1,5-a]pyrimidine] | 101

Same assay, conditions: human, 4 h, 100 μM

Row | SMILES | Cell viability [%]
34 | COc1cc(-c2cc(-c3ccc(N4CCNCC4)cc3)cnc2Cl)cc(OC)c1OC [Compound 27, 1-(4-(6-chloro-5-(3,4,5-trimethoxyphenyl)pyridin-3-yl)phenyl)piperazine] | 97
35 | COc1cc(-c2cc(-c3ccc(O)cc3)cnc2N)cc(OC)c1OC [Compound 11, 4-(6-Amino-5-(3,4,5-trimethoxyphenyl)pyridin-3-yl)phenol] | 91
36 | Nc1ncc(-c2ccc(N3CCNCC3)cc2)cc1-c1cccc2ncccc12 [Compound 31, 5-(4-(piperazin-1-yl)phenyl)-3-(quinolin-5-yl)pyridin-2-amine] | 117
37 | COc1cc(-c2cnc(N)c(-c3cc(OC)c(OC)c(OC)c3)c2)ccc1O [Compound 12, 4-(6-amino-5-(3,4,5-trimethoxyphenyl)pyridin-3-yl)-2-methoxyphenol] | 93
38 | Nc1ncc(-c2ccc(N3CCNCC3)cc2)cc1-c1ccc2c(c1)OCCO2 [Compound 19, 3-(2,3-dihydrobenzo[b][1,4]dioxin-6-yl)-5-(4-(piperazin-1-yl)phenyl)pyridin-2-amine] | 91

Same assay, conditions: human, 24 h, 1 μM

Row | SMILES | Cell viability [%]
39 | COc1cc(-c2cc(-c3ccc(N4CCNCC4)cc3)cnc2Cl)cc(OC)c1OC [Compound 27, 1-(4-(6-chloro-5-(3,4,5-trimethoxyphenyl)pyridin-3-yl)phenyl)piperazine] | 101
40 | COc1cc(OC)cc(-c2cc(-c3ccc(N4CCNCC4)cc3)cnc2N)c1 [Compound 17, 3-(3,5-dimethoxyphenyl)-5-(4-(piperazin-1-yl)phenyl)pyridin-2-amine] | 99
41 | COc1cc(-c2cc(-c3ccc(O)cc3)cnc2N)cc(OC)c1OC [Compound 11, 4-(6-Amino-5-(3,4,5-trimethoxyphenyl)pyridin-3-yl)phenol] | 99
42 | Nc1ncc(-c2ccc(N3CCNCC3)cc2)cc1-c1cccc2ncccc12 [Compound 31, 5-(4-(piperazin-1-yl)phenyl)-3-(quinolin-5-yl)pyridin-2-amine] | 105
43 | COc1cc(-c2cnc(N)c(-c3cc(OC)c(OC)c(OC)c3)c2)ccc1O [Compound 12, 4-(6-amino-5-(3,4,5-trimethoxyphenyl)pyridin-3-yl)-2-methoxyphenol] | 97
44 | Nc1ncc(-c2ccc(N3CCNCC3)cc2)cc1-c1ccc2c(c1)OCCO2 [Compound 19, 3-(2,3-dihydrobenzo[b][1,4]dioxin-6-yl)-5-(4-(piperazin-1-yl)phenyl)pyridin-2-amine] | 103
45 | COc1cc(-c2cnn3cc(-c4ccc(N5CCNCC5)cc4)cnc23)cc(OC)c1OC [Compound 32, 3-(3,4,5-trimethoxyphenyl)-6-[4-(1-piperazinyl)phenyl]pyrazolo[1,5-a]pyrimidine] | 99

Same assay, conditions: human, 24 h, 10 μM

Row | SMILES | Cell viability [%]
46 | COc1cc(-c2cc(-c3ccc(N4CCNCC4)cc3)cnc2Cl)cc(OC)c1OC [Compound 27, 1-(4-(6-chloro-5-(3,4,5-trimethoxyphenyl)pyridin-3-yl)phenyl)piperazine] | 98
47 | COc1cc(OC)cc(-c2cc(-c3ccc(N4CCNCC4)cc3)cnc2N)c1 [Compound 17, 3-(3,5-dimethoxyphenyl)-5-(4-(piperazin-1-yl)phenyl)pyridin-2-amine] | 80
48 | COc1cc(-c2cc(-c3ccc(O)cc3)cnc2N)cc(OC)c1OC [Compound 11, 4-(6-Amino-5-(3,4,5-trimethoxyphenyl)pyridin-3-yl)phenol] | 89
49 | Nc1ncc(-c2ccc(N3CCNCC3)cc2)cc1-c1cccc2ncccc12 [Compound 31, 5-(4-(piperazin-1-yl)phenyl)-3-(quinolin-5-yl)pyridin-2-amine] | 95
50 | COc1cc(-c2cnc(N)c(-c3cc(OC)c(OC)c(OC)c3)c2)ccc1O [Compound 12, 4-(6-amino-5-(3,4,5-trimethoxyphenyl)pyridin-3-yl)-2-methoxyphenol] | 88
51 | Nc1ncc(-c2ccc(N3CCNCC3)cc2)cc1-c1ccc2c(c1)OCCO2 [Compound 19, 3-(2,3-dihydrobenzo[b][1,4]dioxin-6-yl)-5-(4-(piperazin-1-yl)phenyl)pyridin-2-amine] | 95

Same assay, conditions: human, 24 h, 100 μM

Row | SMILES | Cell viability [%]
52 | COc1cc(-c2cc(-c3ccc(O)cc3)cnc2N)cc(OC)c1OC [Compound 11, 4-(6-Amino-5-(3,4,5-trimethoxyphenyl)pyridin-3-yl)phenol] | 82
53 | COc1cc(-c2cnc(N)c(-c3cc(OC)c(OC)c(OC)c3)c2)ccc1O [Compound 12, 4-(6-amino-5-(3,4,5-trimethoxyphenyl)pyridin-3-yl)-2-methoxyphenol] | 89
